Laboratory results as given in patent US8933070B2, “Methods of targeting PTEN mutant diseases and compositions therefor” (University Health Network, priority 2010, dated 2015).

How the values were obtained:
Test in all cases: Cell growth inhibition, SRB assay, extended panel
Assay type in all cases: cell-based
[1] = system: Hs683 brain cancer cell line; conditions: Homo sapiens, Hs 683, read-out: GI50 Range Hs683
Experimental: (§1) Breast cancer cells (MCF-7, MDA-MB-468 and HCC1954), colon cancer cells (SW620) and lung cancer cells (A549), together with human mammary epithelial primary cells (HMEC) were seeded (1000 to 4000 per 80 μl per well depending on the cell growth rate) into 96-well plates 24 hours before compound overlay. Compounds were prepared as 10 mM stock solutions in 100% DMSO which were diluted with DMEM (Dulbecco's Modified Eagle's Medium) cell growth Medium (Invitrogen, Canada) containing 10% FBS (Fetal Bovine Serum) to concentrations ranging from 50 nM to 250 μM. Aliquots (20 μl) from each concentration were overlaid to 80 μl of the pre-seeded cells in the 96-plates to make final concentrations of 10 nM to 50 μM. The cells were cultured for 5 days before the Sulforhodamine B (SRB) assay was performed to determine the compound's cell growth inhibition activity.
(§2) Sulforhodamine B (Sigma, Canada) is a water-soluble dye that binds to the basic amino acids of cellular proteins. Thus, colorimetric measurement of the bound dye provides an estimate of the total protein mass that is related to the cell number. The cells are fixed in situ by gently aspirating off the culture media and adding 50 μl ice cold 10% Trichloroacetic Acid (TCA) per well and incubated at 4° C. for 30-60 min. The plates are washed with water five times and allowed to air dry for 5 min. Addition of 50 μl 0.4% (w/v) SRB solution in 1% (v/v) acetic acid to each well and incubatation for […] at RT completes the staining reaction. Following staining, plates are washed four times with 1% acetic acid to remove unbound dye and then allowed to air dry for 5 min. The stain is solubilized with 100 μl of 10 mM Tris pH 10.5 per well. Absorbance is read at 570 nm.
(§3) The percentage (%) of relative growth inhibition was calculated by comparing to DMSO-treated only cells (100%). GI50's were determined for compounds with cytotoxic activity. The GI50 was calculated using GraphPad PRISM software (GraphPad Software, Inc., USA).
(§4) The SRB assay described above was used to assay test compounds against the extended panel (Table 6).

[2] = system: PC-3 prostate cancer cell line; conditions: read-out: GI50 Range PC-3
Experimental: as §1, §2, §3, §4

[3] = system: SKBr-3 breast cancer cell line; conditions: Homo sapiens, SK-BR-3, read-out: GI50 Range SKBr-3
Experimental: as §1, §2, §3, §4

[4] = system: SK-OV-3 ovarian cancer cell line; conditions: Homo sapiens, SK-OV-3, read-out: GI50 Range SK-OV-3
Experimental: as §1, §2, §3, §4

[5] = system: A172 brain cancer cell line; conditions: Homo sapiens, A 172, read-out: GI50 Range A172
Experimental: as §1, §2, §3, §4

[6] = system: Colo 205 colon cancer cell line; conditions: Homo sapiens, COLO 205, read-out: GI50 Range Colo 205
Experimental: as §1, §2, §3, §4

[7] = system: SK-N-SH brain cancer cell line; conditions: Homo sapiens, read-out: GI50 Range SK-N-SH
Experimental: as §1, §2, §3, §4

[8] = system: HCT-15 colon cancer cell line; conditions: Homo sapiens, HCT-15, read-out: GI50 Range HCT-15
Experimental: as §1, §2, §3, §4

[9] = system: SW626 ovarian cancer cell line; conditions: Homo sapiens, SW626, read-out: GI50 Range SW626
Experimental: as §1, §2, §3, §4

[10] = system: T-47D breast cancer cell line; conditions: Homo sapiens, T47D, read-out: GI50 Range T-47D
Experimental: as §1, §2, §3, §4

[11] = system: 184A1 immortalized breast cell line; conditions: 184A1, read-out: GI50 Range 184A1
Experimental: as §1, §2, §3, §4

[12] = system: H358 lung cancer cell line; conditions: Homo sapiens, NCI-H358, read-out: GI50 Range H358
Experimental: as §1, §2, §3, §4

[13] = system: Hs578T breast cancer cell line; conditions: Homo sapiens, Hs-578T, read-out: GI50 Range Hs578T
Experimental: as §1, §2, §3, §4

[14] = system: OVCAR-3 ovarian cancer cell line; conditions: Homo sapiens, OVCAR-3, read-out: GI50 Range OVCAR-3
Experimental: as §1, §2, §3, §4

518A2 melanoma cell line = conditions: Homo sapiens, 518A2, read-out: GI50 Range 518A2
Experimental: as §1, §2, §3, §4

[15] = system: BT-474 breast cancer cell line; conditions: Homo sapiens, BT-474, read-out: GI50 Range BT-474
Experimental: as §1, §2, §3, §4

Measured: GI50

COc1ccc2c(c1)/C(=C\c1ccc3c(/C=C/c4ccc(N5CCN(C)CC5)nc4)n[nH]c3c1)C(=O)N2 [Compound 3]
< 5 µM: all assays above
